*1 amine or outer side, *2 acyl side, *3 side chain or, on linkers, in order; H or OH if unused. Where a SMILES comes first, the peptide text is derived from it. Bridges are numbered along the chain shown (N, C = ends). [ ]: non-standard residue; d: D form. X1 = C#CCCC[C@H](O[*:2])C(C)(C)C(=O)[*:1]; X2 = C=CCCC[C@H](O[*:2])C(C)(C)C(=O)[*:1]; X3 = CCCCC[C@H](O[*:2])C(C)(C)C(=O)[*:1]; Hmpa(2S,3S) = CC[C@H](C)[C@H](O)C(=O)O; NMeV = CN[C@H](C(=O)O)C(C)C
Assays:
HeLa = experiment: Growth inhibition of human HeLa cells after 72 hrs by MTT assay; format: functional, cell-based
HL-60 = experiment: Growth inhibition of human HL60 cells after 72 hrs by MTT assay; format: functional, cell-based; details: HL-60, 72 h

IC50 (HeLa) [µM] | IC50 (HL-60) [µM] | Compound
29 | 19 | C#CCCC[C@@H]1OC(=O)[C@H](C)NC(=O)[C@H](CC(C)C)NC(=O)[C@@H]2CCCN2C(=O)[C@H]([C@@H](C)CC)OC(=O)[C@H](C(C)C)N(C)C(=O)[C@H](C(C)C)NC(=O)C1(C)C (V[NMeV][Hmpa(2S,3S)]PLA; linker N-C via X1)
23 | 6 | C=CCCC[C@@H]1OC(=O)[C@H](C)NC(=O)[C@H](CC(C)C)NC(=O)[C@@H]2CCCN2C(=O)[C@H]([C@@H](C)CC)OC(=O)[C@H](C(C)C)N(C)C(=O)[C@H](C(C)C)NC(=O)C1(C)C (V[NMeV][Hmpa(2S,3S)]PLA; linker N-C via X2)
18 | 11 | CCCCC[C@@H]1OC(=O)[C@H](C)NC(=O)[C@H](CC(C)C)NC(=O)[C@@H]2CCCN2C(=O)[C@H]([C@@H](C)CC)OC(=O)[C@H](C(C)C)N(C)C(=O)[C@H](C(C)C)NC(=O)C1(C)C (V[NMeV][Hmpa(2S,3S)]PLA; linker N-C via X3)
